Results as given in patent US20240025862A1, “SUBSTITUTED N-PHENYLURACILS AND SALTS THEREOF, AND USE THEREOF AS HERBICIDAL ACTIVE SUBSTANCES” (Bayer Aktiengesellschaft, priority 2020, published 2024).

Key:
Assay type in all cases: in vivo
[1] = system: Abutilon theophrasti (ABUTH); assay: Post-emergence herbicidal action, greenhouse pot test; conditions: rated visually after about 3 weeks vs untreated controls, 100% = plants have died
Method: (§1) Seeds of monocotyledonous and dicotyledonous weeds and crop plants were placed in sandy loam in plastic or wood-fiber pots, covered with soil and cultivated in a greenhouse under controlled growth conditions. 2 to 3 weeks after sowing, the test plants were treated at the one-leaf stage. The compounds of the invention, formulated in the form of wettable powders (WP) or as emulsion concentrates (EC), were then sprayed onto the green parts of the plants as aqueous suspension or emulsion with addition of 0.5% additive at a water application rate of 600 l/ha (converted). After the test plants had been kept in the greenhouse under optimum growth conditions for about 3 weeks, the activity of the preparations was rated visually in comparison to untreated controls. For example, 100% activity=the plants have died, 0% activity=like control plants.
(§2) Tables A1 to A14 below show the effects of selected compounds of the general formula (I) according to Tables I.1 to I.33 on various harmful plants and at an application rate corresponding to 20 g/ha and less, which were obtained by the experimental method specified above. The appendices “a”, “b” and “c” give differentiation by different dosage with otherwise the same harmful plants tested.

[2] = system: Amaranthus retroflexus (AMARE); assay: as above; conditions: rated visually after about 3 weeks vs untreated controls, 100% = plants have died
Method: as §1, §2

[3] = system: Pharbitis purpurea (PHBPU); assay: as above
Method: as §1, §2

[4] = system: Polygonum convolvulus (POLCO); assay: as above
Method: as §1, §2

Veronica persica (VERPE) = assay: as above
Method: as §1, §2

Viola tricolor (VIOTR) = assay: as above
Method: as §1, §2

[5] = system: Echinochloa crus-galli (ECHCG); assay: Post-emergence herbicidal action, greenhouse pot test (also comparative test C)
Method: as §1, §2
(§3) C. Comparative Herbicidal Action and Crop Plant Compatibility of Two Inventive Compounds (I.7-1 and I.7-115) with a Compound of Similar Structure Known from the Literature (WO2002/098227, a-17 and EP1106607, 3-14) in Post-Emergence Treatment.
(§4) Tables C1-C4 below show the effects of two inventive compounds (I.7-1 and I.7-115) together with a compound of similar structure known from the literature (a-17 in WO2002/098227, and 3-14 in EP1106607) in different crop plants at an application rate corresponding to 5 g/ha or less, which have been obtained by the aforementioned experimental procedure.

[6] = system: Matricaria inodora (MATIN); assay: as above
Method: as §1, §2, §3, §4

Setaria viridis (SETVI) = assay: as above; conditions: for Post-emergence action against SETVI: 20 g/ha
Method: as §1, §2, §3, §4

[7] = system: Triticum aestivum (TRZAS); assay: Post-emergence crop plant compatibility, greenhouse pot test; conditions: vs untreated controls
Method: as §1
(§5) The observed effects on selected crop plants are reported here in comparison to the untreated controls (values in %). The appendices “a”, “b” and “c” give differentiation by different dosage with otherwise the same crop plants tested.

Zea mays (ZEAMX) = assay: as above; conditions: vs untreated controls
Method: as §1, §5

Oryza sativa (ORYSA) = assay: Post-emergence crop plant compatibility, greenhouse pot test (also comparative test C); conditions: for Post-emergence action against ORYSA (crop plant compatibility): vs untreated controls
Method: as §1, §5, §3

[8] = system: Alopecurus myosuroides (ALOMY); assay: Post-emergence herbicidal action, greenhouse pot test (also comparative test C); conditions: 20 g/ha, rated visually after about 3 weeks vs untreated controls, 100% = plants have died
Method: as §1, §2, §3, §4

| SMILES | Post-emergence action at 5 g/ha against ABUTH in % [1] | Post-emergence action at 20 g/ha against ABUTH in % [1] | Post-emergence action at 1.25 g/ha against AMARE in % [2] | Post-emergence action at 5 g/ha against AMARE in % [2] | Post-emergence action at 20 g/ha against AMARE in % [2] | Post-emergence action against PHBPU in % ([3]; dosage 5 g/ha) | Post-emergence action against PHBPU in % ([3]; dosage 20 g/ha) | Post-emergence action against POLCO in % ([4]; dosage 20 g/ha) | Post-emergence action against VERPE (Veronica persica (VERPE); 5 g/ha) | Post-emergence action against VERPE (Veronica persica (VERPE); 20 g/ha) | Post-emergence action against VIOTR (Viola tricolor (VIOTR); 1.25 g/ha) | Post-emergence action against VIOTR (Viola tricolor (VIOTR); 5 g/ha) | Post-emergence action against VIOTR (Viola tricolor (VIOTR); 20 g/ha) | Post-emergence action against ECHCG in % ([5]; dosage 5 g/ha) | Post-emergence action against ECHCG in % ([5]; dosage 20 g/ha) | Post-emergence action against MATIN in % ([6]; dosage 20 g/ha) | Post-emergence action against SETVI (Setaria viridis (SETVI)) | Post-emergence action against SETVI in % (Setaria viridis (SETVI); dosage 5 g/ha) | Post-emergence action against TRZAS (crop plant compatibility) ([7]; 1.25 g/ha) | Post-emergence action against ZEAMX (crop plant compatibility) (Zea mays (ZEAMX); 1.25 g/ha) | further results |
| --- | --- | --- | --- | --- | --- | --- | --- | --- | --- | --- | --- | --- | --- | --- | --- | --- | --- | --- | --- | --- | --- |
| COCCOC(=O)COc1ccccc1Oc1cc(-n2c(=O)cc(C(F)(F)F)n(C)c2=O)c(F)cc1C#N [I.9-1] | 100% | 100% | 100% | 100% | 100% | 100% | 100% | 100% | 100% | 100% | 100% | 100% | 100% | 90% | 100% | 100% | 100% | 100% | 0% | 10% | Post-emergence action at 1.25 g/ha against ABUTH in % [1]: 100%; Post-emergence action against VERPE (Veronica persica (VERPE); 1.25 g/ha): 100%; Post-emergence action against MATIN in % ([6]; dosage 5 g/ha): 80%; Post-emergence action against SETVI in % (Setaria viridis (SETVI); dosage 1.25 g/ha): 80%; Post-emergence action against TRZAS (crop plant compatibility) ([7]; 5 g/ha): 10%; Post-emergence action against TRZAS (crop plant compatibility) ([7]; 20 g/ha): 10%; Post-emergence action against ORYSA (crop plant compatibility) (Oryza sativa (ORYSA); 1.25 g/ha): 0%; Post-emergence action against ORYSA (crop plant compatibility) (Oryza sativa (ORYSA); 5 g/ha): 20% |
| COCCOCCOC(=O)COc1ccc(F)cc1Oc1cc(-n2c(=O)cc(C(F)(F)F)n(C)c2=O)c(F)cc1Cl [I.23-23] | 100% | 100% | 100% | 100% | 100% | 100% | 100% | 100% | 100% | 100% | 100% | 100% | 100% | 100% | 100% | 100% | 100% | 100% | 20% | 20% | Post-emergence action against PHBPU in % ([3]; dosage 1.25 g/ha): 100%; Post-emergence action against POLCO in % ([4]; dosage 1.25 g/ha): 100%; Post-emergence action against POLCO in % ([4]; dosage 5 g/ha): 100%; Post-emergence action at 20 g/ha against ALOMY in % [8]: 100%; Post-emergence action against SETVI in % (Setaria viridis (SETVI); dosage 1.25 g/ha): 100% |
| Cn1c(C(F)(F)F)cc(=O)n(-c2cc(Oc3ccccc3OCC(=O)OCC[N+](=O)[O-])c([N+](=O)[O-])cc2F)c1=O [I.6-183] | 100% | 100% | 100% | 100% | 100% | 100% | 100% | 100% | 100% | 100% | 90% | 100% | 100% | – | 80% | 100% | 100% | 100% | 0% | 20% | Post-emergence action against PHBPU in % ([3]; dosage 1.25 g/ha): 100%; Post-emergence action at 20 g/ha against ALOMY in % [8]: 90%; Post-emergence action against MATIN in % ([6]; dosage 5 g/ha): 80%; Post-emergence action against TRZAS (crop plant compatibility) ([7]; 5 g/ha): 20%; Post-emergence action against ZEAMX (crop plant compatibility) (Zea mays (ZEAMX); 5 g/ha): 20%; Post-emergence action against ORYSA (crop plant compatibility) (Oryza sativa (ORYSA); 1.25 g/ha): 0%; Post-emergence action against ORYSA (crop plant compatibility) (Oryza sativa (ORYSA); 5 g/ha): 0%; Post-emergence action against ORYSA in % (Oryza sativa (ORYSA); 20 g/ha, crop plant compatibility): 0% |
| Cn1c(C(F)(F)F)cc(=O)n(-c2cc(Oc3c(F)cccc3OCC(=O)OCc3ccccn3)c(Cl)cc2F)c1=O [I.19-276] | 100% | 100% | 100% | 100% | 100% | 100% | 100% | 100% | 100% | 100% | 100% | 100% | 100% | 100% | 100% | 100% | 100% | 100% | 20% | 20% | Post-emergence action at 1.25 g/ha against ABUTH in % [1]: 100%; Post-emergence action against POLCO in % ([4]; dosage 5 g/ha): 100%; Post-emergence action against VERPE (Veronica persica (VERPE); 1.25 g/ha): 100%; Post-emergence action at 20 g/ha against ALOMY in % [8]: 90%; Post-emergence action against MATIN in % ([6]; dosage 5 g/ha): 100%; Post-emergence action against SETVI in % (Setaria viridis (SETVI); dosage 1.25 g/ha): 100%; Post-emergence action against ORYSA (crop plant compatibility) (Oryza sativa (ORYSA); 1.25 g/ha): 0%; Post-emergence action against ORYSA (crop plant compatibility) (Oryza sativa (ORYSA); 5 g/ha): 0% |
